Measurements reported in publication PMC6179904 (Developmental Cell, 2018).

Tested on: Jurkat T-cells
Format: cell-based, human

In the case of Nc1ncnc2c1c(-c1ccc(Oc3ccccc3)cc1)cn2C1CCCC1 [LCK inhibitor (CAS 213743-31-8)], the “LCK localization ratio (LR) at the immune synapse” value is reported as 1.05.

For CCOC(=O)N1CCC(Nc2c(NCCN3CCN(c4cccc(C(F)(F)F)c4)CC3)c(=O)c2=O)CC1 [squarunkin A], the “LCK localization ratio (LR) at the immune synapse” value was 0.94.
